This is an account of results in patent US6337087B1, “Aqueous pharmaceutical composition comprising an active ingredient which is highly insoluble in water” (Aziende Chimiche Riunite Angelini Francesco A.C.R.A.F. …, priority 1997, dated 2002).

Usually solubility stands for how much of the substance goes into solution per volume. Low readings indicate a poorly soluble substance, high ones a readily soluble substance.

Molecules are shown by their SMILES. In brackets after ≈: the same amount, converted by molar mass.

This data set is described as follows: initial solubility of the active ingredient. It counts as physicochemical. Particulars: active ingredient without liposomes, aqueous.

For `O=C(O)c1nn(Cc2ccc(Cl)cc2Cl)c2ccccc12` [lonidamine], the solubility came out at 3 µg/mL (≈ 9.34 µM).
